Assay results reported in patent US5215916A, “Super glucocorticoid receptors: receptors with increased affinity and specificity for glucocorticoid steriods” (priority 1991, dated 1993).
Numbering of substitutions follows the chain as printed.

Columns and labels:
[1] = target: T1, C656S mutant glucocorticoid receptor (Rattus norvegicus, UniProt P06536, C656S/D98G); assay: Competition binding assay with [3H]Dex, COS-7 cytosol, C656S receptor; conditions: for reduction in relative affinity on replacement of Cys-656 with serine: C656S vs wild type, 2.5 hr incubation
T1 construct: Thus the full length receptor was removed from the VARO vector with BamHI and inserted into the SVL vector; expressed in transfected cells; host or cells: COS-7 (cytosol)
T1 sequence (P06536 1-795 D98G/C656S): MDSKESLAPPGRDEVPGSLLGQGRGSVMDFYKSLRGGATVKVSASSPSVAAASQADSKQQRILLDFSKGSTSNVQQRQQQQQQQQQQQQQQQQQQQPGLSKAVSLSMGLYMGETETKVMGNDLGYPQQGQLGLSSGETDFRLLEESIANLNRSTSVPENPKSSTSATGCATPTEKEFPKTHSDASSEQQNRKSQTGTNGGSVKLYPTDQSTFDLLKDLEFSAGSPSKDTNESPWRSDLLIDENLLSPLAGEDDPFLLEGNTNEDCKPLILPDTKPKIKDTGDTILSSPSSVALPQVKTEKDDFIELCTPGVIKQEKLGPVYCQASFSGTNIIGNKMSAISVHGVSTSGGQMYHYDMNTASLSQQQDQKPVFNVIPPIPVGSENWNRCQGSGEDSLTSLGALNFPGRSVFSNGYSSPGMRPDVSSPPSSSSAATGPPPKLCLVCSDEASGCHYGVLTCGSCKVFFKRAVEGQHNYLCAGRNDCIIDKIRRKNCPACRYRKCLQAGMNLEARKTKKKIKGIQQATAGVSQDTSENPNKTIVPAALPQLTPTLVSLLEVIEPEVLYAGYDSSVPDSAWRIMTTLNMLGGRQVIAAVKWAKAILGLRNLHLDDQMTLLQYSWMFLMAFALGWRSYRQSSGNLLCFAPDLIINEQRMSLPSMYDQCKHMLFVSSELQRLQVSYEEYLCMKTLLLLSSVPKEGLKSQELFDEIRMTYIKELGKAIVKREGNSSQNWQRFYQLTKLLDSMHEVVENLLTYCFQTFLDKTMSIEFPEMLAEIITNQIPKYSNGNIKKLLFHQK
Description: (§1) Monolayer cultures of COS-7 cells were grown in DMEM (Gibco) supplemented with 5% fetal bovine serum (FBS) (Biofluids) at 37° C. in a 5% CO2 incubator. Standard calcium phosphate transfection methods were used to introduce the wild type and mutant receptor expression vectors (pSVL) into COS-7 cells (100 mm plates [Costar] at a cell density of about 10^6 /plate were each treated with 10 μg of plasmid DNA). After ~16 hrs of incubation at 37° C. in a 5% CO2 incubator, the excess calcium phosphate and precipitate were removed by washing with phosphate buffered saline (PBS). The cells were incubated at 37° C. for another ~48 hr in DMEM/ 5% FBS and harvested by trypsinization followed by centrifugation (for 10 min at 1570 ×g) and washing 3 times with PBS. The washed cells were stored at -80° C. until used.
(§2) Briefly, 30% cytosol solutions containing ~21 mM Na2 MoO4 were prepared with three parts COS-7 cell cytosol, 2 parts pH 9.5 TAPS buffer, and 5 parts pH 8.8 TAPS buffer. The total EtOH in each experiment was kept constant and at a level of ≤1%. […] After incubation for 2.5 hr, the [^3 H]Dex-Mes-labeled solutions were quick-frozen at -78° C. for subsequent SDS-polyacrylamide gel electrophoresis analysis. The specifically bound [^3 H]Dex was determined by first adding a 10% dextran-coated charcoal solution (added volume =20% of reaction solution volume) to remove free steroid and then subtracting the nonspecific binding seen in the presence of excess nonradioactive Dex.
(§3) The average specific binding was determined after 2.5 or 24 hr of incubation as described above, expressed as percentage of the non-competed control and plotted versus the log10 of the concentration of the competing steroid.
(§4) The initial data were collected from 2.5 hr binding assays because of concerns about the stability of the receptors over longer times.

[2] = target: T2, C661S mutant glucocorticoid receptor (Rattus norvegicus, UniProt P06536, C661S/D98G); assay: Competition binding assay with [3H]Dex, COS-7 cytosol, C661S receptor; conditions: for decrease in relative affinity on mutation of Cys-661: C661S vs wild type, 2.5 hr incubation
T2 construct: Thus the full length receptor was removed from the VARO vector with BamHI and inserted into the SVL vector; expressed in transfected cells; host or cells: COS-7 (cytosol)
T2 sequence (P06536 1-795 D98G/C661S): T1 sequence (P06536 1-795 D98G/C656S) with S656C, C661S
Description: as §1, §2, §3, §4

| Structure (SMILES) | Relative Ka of Steroid Binding to Receptor [1] | reduction in relative affinity on replacement of Cys-656 with serine [1] [fold] | Relative Ka of Steroid Binding to Receptor [2] | decrease in relative affinity on mutation of Cys-661 [2] | effect of mutation of Cys-661 on binding [2] |
| --- | --- | --- | --- | --- | --- |
| C[C@]12CC[C@@H]3c4ccc(O)cc4CC[C@H]3[C@@H]1CC[C@@H]2O [17β-Estradiol, 17β-estradiol] | 0.0015 | ≥ 10 | 0.0017 ± 0.0006 | approximately 10 fold | – |
| C[C@]12CCC(=O)C=C1CC[C@@H]1[C@@H]2[C@@H](O)C[C@]2(C=O)[C@@H](C(=O)CO)CC[C@@H]12 [Aldosterone, aldosterone] | 0.068 | ≤ 3 | 0.016 ± 0.007 | approximately 10 fold | – |
| CC#C[C@]1(O)CC[C@H]2[C@@H]3CCC4=CC(=O)CCC4=C3[C@@H](c3ccc(N(C)C)cc3)C[C@@]21C [RU486] | 3.4 | – | 3.84 ± 1.36 | – | little effect |
